In patent publication US20110195929A1, “COMPOUNDS FOR THE TREATMENT OF FLAVIVIRAL INFECTIONS” (SUMMIT CORPORATION PLC, priority 2008, published 2011):

Each compound was assayed on HCV (assay: Cell-based HCV infection NS3 protease FRET assay in DMSO-Huh7 cells). Details: not given.
Design: species or system hepatitis C virus (HCV)
Note: test concentration or dose not given here.

**Q.** Which Ave % inhibition does the source give for `CCCCCCCCCN1C[C@H](O)[C@@H](O)[C@H](O)[C@H]1CO` [Compound 550, (2R,3R,4R,5S)-2-(hydroxymethyl)-1-nonylpiperidine-3,4,5-triol] here?
**A.** Its Ave % inhibition is “++ (++: 20-39%)”.

**Q.** How did the Ave % inhibition turn out when `CCN1C[C@H](O)[C@@H](O)[C@H](O)[C@H]1CO` [Compound 756, (2R,3R,4R,5S)-1-ethyl-2-(hydroxymethyl)piperidine-3,4,5-triol] was run?
**A.** Its Ave % inhibition is “+ (+: ≦19%)”.

Same assay, conditions: DMSO-Huh7 cells infected with HCV at 0.05 ffu/cell; HCV NS3 protein levels by FRET, day 6 p.i.

**Q.** Which Ave % inhibition does the source give for `CCCCN1C[C@H](O)[C@@H](O)[C@H](O)[C@H]1CO` [Compound 118, (2R,3R,4R,5S)-1-butyl-2-(hydroxymethyl)piperidine-3,4,5-triol] here?
**A.** Its Ave % inhibition is “++ (++: 20-39%)”.

**Q.** For `CCCCCCCCCN1C[C@@H](O)[C@H](O)[C@@H](NC(C)=O)C1` [Compound 780, N-((3S,4R,5R)-4,5-dihydroxy-1-nonylpiperidin-3-yl)acetamide], which Ave % inhibition is on record?
**A.** The Ave % inhibition was “++ (++: 20-39%)”.

**Q.** With `CCCCCCCCCN1C[C@H](NC(C)=O)[C@@H](O)[C@@H]1CO` [Compound 338, N-((3S,4R,5S)-4-hydroxy-5-(hydroxymethyl)-1-nonylpyrrolidin-3-yl)acetamide] as the compound, how does the Ave % inhibition read?
**A.** The Ave % inhibition was “++ (++: 20-39%)”.

**Q.** Which Ave % inhibition does the source give for `O=C(NC[C@H]1[C@@H](O)[C@@H](O)CN1CCCCCCCCCO)c1ccc(-c2ccccc2)cc1` [Compound 660, N-(((2S,3R,4S)-3,4-dihydroxy-1-(9-hydroxynonyl)pyrrolidin-2-yl)methyl)biphenyl-4-carboxamide] here?
**A.** Its Ave % inhibition is “+++ (+++: 40-59%)”.

**Q.** Which Ave % inhibition does the source give for `OC[C@@H](O)[C@@H]1[C@H](O)[C@H](O)CN1Cc1ccccc1` [Compound 799, (2R,3S,4R)-1-benzyl-2-((S)-1,2-dihydroxyethyl)pyrrolidine-3,4-diol] here?
**A.** The Ave % inhibition was “+ (+: ≦19%)”.

**Q.** Which Ave % inhibition does the source give for `OC1CN(Cc2ccc(-c3ccccc3)cc2)C1` [Compound 748, 1-(biphenyl-4-ylmethyl)azetidin-3-ol] here?
**A.** Its Ave % inhibition is “++++ (++++: 60-79%)”.

**Q.** For `O=C(NC[C@@H]1NC[C@H](O)[C@@H]1O)C(F)(F)F` [Compound 674, N-(((2S,3R,4S)-3,4-dihydroxypyrrolidin-2-yl)methyl)-2,2,2-trifluoroacetamide], which Ave % inhibition is on record?
**A.** The Ave % inhibition was “++ (++: 20-39%)”.

**Q.** `[N-]=[N+]=N[C@@H]1CN[C@@H](CO)C1` [Compound 767, ((2R,4S)-4-azidopyrrolidin-2-yl)methanol] was tested. Which Ave % inhibition did it give?
**A.** Its Ave % inhibition is “++++ (++++: 60-79%)”.

**Q.** For `C[C@H](N)CCC[C@@H]1N[C@@H](CO)[C@H](O)[C@H]1O` [Compound 562, (2S,3S,4S,5S)-2-((S)-4-aminopentyl)-5-(hydroxymethyl)pyrrolidine-3,4-diol], which Ave % inhibition is on record?
**A.** Its Ave % inhibition is “++++ (++++: 60-79%)”.

**Q.** How did the Ave % inhibition turn out when `CC(=O)N[C@@H]1CNC[C@@H](O)[C@H]1O` [Compound 563, N-((3R,4S,5R)-4,5-dihydroxypiperidin-3-yl)acetamide] was run?
**A.** The Ave % inhibition was “++++ (++++: 60-79%)”.

**Q.** Which Ave % inhibition does the source give for `CCCC(=O)O[C@H]1CN2CC[C@H](O)C2[C@@H](O)[C@@H]1O` (stereo partly drawn) [Compound 46, (1S,6S,7S,8R)-1,7,8-trihydroxyoctahydroindolizin-6-yl butyrate] here?
**A.** Its Ave % inhibition is “++ (++: 20-39%)”.

**Q.** Which Ave % inhibition does the source give for `CCCCCCCCCN1C[C@@H](O)[C@H](O)[C@H](O)[C@@H](O)C1` [Compound 736, (3R,4S,5R,6S)-1-nonylazepane-3,4,5,6-tetraol] here?
**A.** The Ave % inhibition was “+++ (+++: 40-59%)”.

**Q.** How did the Ave % inhibition turn out when `[N-]=[N+]=N[C@@H]1CN(CCO)[C@H](CO)[C@H]1O` [Compound 721, (2R,3R,4R)-4-azido-1-(2-hydroxyethyl)-2-(hydroxymethyl)pyrrolidin-3-ol] was run?
**A.** The Ave % inhibition was “++ (++: 20-39%)”.

**Q.** For `CCCCCCCCCN1C[C@H](O)[C@H](O)[C@@H]1CNC(=O)c1ccccc1` [Compound 622, N-(((2S,3R,4S)-3,4-dihydroxy-1-nonylpyrrolidin-2-yl)methyl)benzamide], which Ave % inhibition is on record?
**A.** The Ave % inhibition was “+++++ (+++++: ≧80%)”.

**Q.** How did the Ave % inhibition turn out when `CC(=O)OC[C@H]1[C@@H](OC(C)=O)[C@H](OC(C)=O)[C@H]2[C@@H](OC(C)=O)[C@@H](OC(C)=O)CN21` [Compound 144, (1R,2R,3S,6S,7R,7aR)-3-(acetoxymethyl)hexahydro-1H-pyrrolizine-1,2,6,7-tetrayl tetraacetate] was run?
**A.** Its Ave % inhibition is “++ (++: 20-39%)”.

**Q.** With `CC(=O)OC[C@H]1[C@@H](OC(C)=O)[C@H](OC(C)=O)[C@H]2[C@H](OC(C)=O)[C@@H](OC(C)=O)CN21` [Compound 136, (1R,2R,3S,6S,7S,7aR)-3-(acetoxymethyl)hexahydro-1H-pyrrolizine-1,2,6,7-tetrayl tetraacetate] as the compound, how does the Ave % inhibition read?
**A.** The Ave % inhibition was “++ (++: 20-39%)”.

**Q.** “(1S,2S,3S,6R,7R,7aR)-1,6,7-trihydroxy-3-(hydroxymethyl)hexahydro-1H-pyrrolizin-2-yl methanesulfonate [Compound 635]” was tested. Which Ave % inhibition did it give?
**A.** Its Ave % inhibition is “++ (++: 20-39%)”.

**Q.** `CCCCN1C[C@@H]2OC(C)(C)O[C@@H]2[C@@H]1CNC(=O)C(F)(F)F` [Compound 676, N-(((3aR,4S,6aS)-5-butyl-2,2-dimethyltetrahydro-3aH-[1,3]dioxolo[4,5-c]pyrrol-4-yl)methyl)-2,2,2-trifluoroacetamide] was tested. Which Ave % inhibition did it give?
**A.** Its Ave % inhibition is “++ (++: 20-39%)”.

**Q.** Which Ave % inhibition does the source give for `CCCCCCCCCN1C[C@@H]2OC(C)(C)O[C@@H]2[C@@H]1CNC(C)=O` [Compound 630, N-(((3aR,4S,6aS)-2,2-dimethyl-5-nonyltetrahydro-3aH-[1,3]dioxolo[4,5-c]pyrrol-4-yl)methyl)acetamide] here?
**A.** The Ave % inhibition was “++ (++: 20-39%)”.

**Q.** How did the Ave % inhibition turn out when `OC[C@@H]1[C@@H](O)[C@H](O)[C@@H](CO)N1Cc1ccc(-c2ccccc2)cc1` [Compound 559, (2R,3R,4R,5R)-1-(biphenyl-4-ylmethyl)-2,5-bis(hydroxymethyl)pyrrolidine-3,4-diol] was run?
**A.** Its Ave % inhibition is “++++ (++++: 60-79%)”.

**Q.** `CCCCN1C[C@H](O)[C@H](O)[C@H]1CNC(=O)CCC` [Compound 689, N-(((2R,3R,4S)-1-butyl-3,4-dihydroxypyrrolidin-2-yl)methyl)butyramide] was tested. Which Ave % inhibition did it give?
**A.** Its Ave % inhibition is “+ (+: ≦19%)”.

**Q.** How did the Ave % inhibition turn out when `OC[C@@H](O)[C@H](O)[C@H]1[C@@H](O)[C@H](O)CN1Cc1ccccc1` [Compound 703, (1R,2R)-1-((2R,3R,4R)-1-benzyl-3,4-dihydroxypyrrolidin-2-yl)propane-1,2,3-triol] was run?
**A.** Its Ave % inhibition is “++ (++: 20-39%)”.

**Q.** How did the Ave % inhibition turn out when `CCCCCCCCCN1C[C@H](O)[C@H](O)[C@H]1CNC(C)=O` [Compound 512, N-(((2R,3R,4S)-3,4-dihydroxy-1-nonylpyrrolidin-2-yl)methyl)acetamide] was run?
**A.** The Ave % inhibition was “+++ (+++: 40-59%)”.

**Q.** With `CN(C)CCN1C[C@H](O)[C@H](O)[C@@H]1CNC(=O)c1ccccc1` [Compound 667, N-(((2S,3R,4S)-1-(2-(dimethylamino)ethyl)-3,4-dihydroxypyrrolidin-2-yl)methyl)benzamide] as the compound, how does the Ave % inhibition read?
**A.** The Ave % inhibition was “++ (++: 20-39%)”.

**Q.** Which Ave % inhibition does the source give for `CCCCN1C[C@@H](N=[N+]=[N-])C[C@H]1CO` [Compound 275, ((2S,4S)-4-azido-1-butylpyrrolidin-2-yl)methanol] here?
**A.** Its Ave % inhibition is “++ (++: 20-39%)”.

**Q.** With `[N-]=[N+]=NC[C@H]1[C@@H](O)[C@@H](O)CN1Cc1ccccc1` [Compound 506, (2S,3R,4S)-2-(azidomethyl)-1-benzylpyrrolidine-3,4-diol] as the compound, how does the Ave % inhibition read?
**A.** Its Ave % inhibition is “+++ (+++: 40-59%)”.

**Q.** For `C[C@H]1N[C@@H](CO)[C@H](O)[C@H]1O` [Compound 119, (2S,3S,4S,5R)-2-(hydroxymethyl)-5-methylpyrrolidine-3,4-diol], which Ave % inhibition is on record?
**A.** Its Ave % inhibition is “++ (++: 20-39%)”.

**Q.** For `OC[C@@H]1[C@@H](O)[C@H](O)[C@@H](CO)N1Cc1ccc(-c2ccccc2)cc1` [Compound 558, (2R,3R,4R,5R)-1-(biphenyl-4-ylmethyl)-2,5-bis(hydroxymethyl)pyrrolidine-3,4-diol], which Ave % inhibition is on record?
**A.** The Ave % inhibition was “+++ (+++: 40-59%)”.
